Reference: ChEMBL document CHEMBL2429809, “Novel peptide-doxorubucin conjugates for targeting breast cancer cells including the multidrug resistant cells” (J Med Chem, 2013)

What was measured:
MDA-MB-435 [1] = assay: Cytotoxicity against doxorubicin-resistant multidrug-resistant human MDA-MB-435 cells after 48 hrs by MTT assay; assay type: functional, cell-based; conditions: MDA-MB-435, 48 h
MDA-MB-435 [2] = assay: Cellular uptake in human MDA-MB-435 cells at 5 uM after 2 hrs by FACS analysis relative to control; assay type: ADME, cell-based; conditions: mda-mb-435, 2 h
MCF-10A [3] = assay: Cytotoxicity against human MCF10A cells after 48 hrs by MTT assay; assay type: cell-based
MCF7 [4] = assay: Cellular uptake in human MCF7 cells at 5 uM after 2 hrs by FACS analysis relative to control; assay type: ADME, cell-based; conditions: mcf7, 2 h
MDA-MB-435 [5] = assay: Ratio of IC50 for doxorubicin-resistant multidrug-resistant human MDA-MB-435 cells to IC50 for doxorubicin-resistant multidrug-resistant human MDA-MB-435 cells in presence of verapamil; assay type: functional
MCF7 [6] = assay: Cellular uptake in human MCF7 cells at 5 uM after 2 hrs by FACS analysis in presence of NH2-WxEYAAQkFL-CONH2; assay type: ADME, cell-based; conditions: mcf7, 2 h
MCF7 [7] = assay: Cytotoxicity against human MCF7 cells after 48 hrs by MTT assay; assay type: functional, cell-based; conditions: MCF7, 48 h
HUVEC [8] = assay: Cytotoxicity against human HUVEC cells after 48 hrs by MTT assay; assay type: cell-based
MDA-MB-435 [9] = assay: Cellular uptake in doxorubicin-resistant multidrug-resistant human MDA-MB-435 cells at 5 uM after 2 hrs by FACS analysis relative to doxorubicin; assay type: ADME, cell-based; conditions: mda-mb-435, 2 h
MDA-MB-435 [10] = assay: Cytotoxicity against doxorubicin-resistant multidrug-resistant human MDA-MB-435 cells after 48 hrs by MTT assay in presence of verapamil; assay type: functional, cell-based; conditions: MDA-MB-435, 48 h
MCF-10A [11] = assay: Cellular uptake in human MCF10A cells at 5 uM after 2 hrs by FACS analysis; assay type: ADME, cell-based
MDA-MB-435 [12] = assay: Cytotoxicity against human MDA-MB-435 cells after 48 hrs by MTT assay in presence of verapamil; assay type: functional, cell-based; conditions: MDA-MB-435, 48 h
HUVEC [13] = assay: Cellular uptake in human HUVEC cells at 5 uM after 2 hrs by FACS analysis; assay type: ADME, cell-based
MDA-MB-435 [14] = assay: Cytotoxicity against human MDA-MB-435 cells after 48 hrs by MTT assay; assay type: functional, cell-based; conditions: MDA-MB-435, 48 h
MDA-MB-435 [15] = assay: Ratio of IC50 for human MDA-MB-435 cells to IC50 for human MDA-MB-435 cells in presence of verapamil; assay type: functional
[16] = Half life in human serum at 100 uM after 48 hrs by RP-HPLC analysis; assay type: ADME, cell-free
MDA-MB-435 [17] = assay: Cellular uptake in doxorubicin-resistant multidrug-resistant human MDA-MB-435 cells at 5 uM after 2 hrs by FACS analysis; assay type: ADME, cell-based; conditions: mda-mb-435, 2 h
MDA-MB-435 [18] = assay: Cytotoxicity against doxorubicin-resistant multidrug-resistant human MDA-MB-435 cells after 48 hrs by MTT assay relative to doxorubicin; assay type: functional

In the case of `CCCC[C@@H](NC(=O)[C@@H](N)Cc1c[nH]c2ccccc12)C(=O)N[C@@H](CCC(=O)O)C(=O)N[C@@H](C)C(=O)N[C@@H](C)C(=O)N[C@@H](Cc1ccc(O)cc1)C(=O)N[C@@H](CCC(N)=O)C(=O)N[C@H](CCCCNC(=O)CCCC(=O)OCC(=O)[C@]1(O)Cc2c(O)c3c(c(O)c2[C@@H](O[C@H]2C[C@H](N)[C@H](O)[C@H](C)O2)C1)C(=O)c1c(OC)cccc1C3=O)C(=O)N[C@@H](Cc1ccccc1)C(=O)N[C@@H](CC(C)C)C(N)=O`, the IC50 (MDA-MB-435 [1]) is reported as 19.7 µM, the Drug uptake (MDA-MB-435 [2]) is reported as “Active” and the IC50 (MCF-10A [3]) is reported as 40.5 µM. For the same compound, the Drug uptake (MCF7 [4]) was “Active”, the “Ratio IC50” value (MDA-MB-435 [5]) was 1.3 and the Drug uptake (MCF7 [6]) was “Active”. The IC50 (MCF7 [7]) was 19.1 µM, the IC50 (HUVEC [8]) was 50.9 µM and the “fold change (FC)” value (MDA-MB-435 [9]) was 3. The IC50 (MDA-MB-435 [10]) was 14.4 µM, the Drug uptake (MCF-10A [11]) was “Active” and the IC50 (MDA-MB-435 [12]) was 15.5 µM. The Drug uptake (HUVEC [13]) was “Active”, the IC50 (MDA-MB-435 [14]) was 18.6 µM and the “Ratio IC50” value (MDA-MB-435 [15]) was 1.3.
For `CCCC[C@@H](NC(=O)[C@@H](N)Cc1c[nH]c2ccccc12)C(=O)N[C@@H](CCC(=O)O)C(=O)N[C@@H](C)C(=O)N[C@@H](C)C(=O)N[C@@H](Cc1ccc(O)cc1)C(=O)N[C@@H](CCC(N)=O)C(=O)N[C@H](CCCCNC(=O)CCCC(=O)N[C@H]1C[C@H](O[C@H]2C[C@](O)(C(=O)CO)Cc3c(O)c4c(c(O)c32)C(=O)c2c(OC)cccc2C4=O)O[C@@H](C)[C@H]1O)C(=O)N[C@@H](Cc1ccccc1)C(=O)N[C@@H](CC(C)C)C(N)=O`, the IC50 (MDA-MB-435 [1]) was 5.4 µM, the Drug uptake (MDA-MB-435 [2]) was “Active” and the IC50 (MCF-10A [3]) was 35.1 µM. The half-life at 100 µM [16] was 2 h, the Drug uptake (MCF7 [4]) was “Active” and the “Ratio IC50” value (MDA-MB-435 [5]) was 1.3. The Drug uptake (MCF7 [6]) was “Active”, the IC50 (MCF7 [7]) was 0.9 µM and the IC50 (HUVEC [8]) was 42.3 µM. For the same compound, the “fold change (FC)” value (MDA-MB-435 [9]) was 4.7, the IC50 (MDA-MB-435 [10]) was 3.1 µM and the Drug uptake (MCF-10A [11]) was “Active”. For the same compound, the IC50 (MDA-MB-435 [12]) was 0.83 µM, the Drug uptake (HUVEC [13]) was “Active” and the IC50 (MDA-MB-435 [14]) was 1.5 µM. For the same compound, the Drug uptake (MDA-MB-435 [17]) was “Active”, the “Ratio IC50” value (MDA-MB-435 [18]) was >4 and the “Ratio IC50” value (MDA-MB-435 [15]) was 1.3.
In the case of `COc1cccc2c1C(=O)c1c(O)c3c(c(O)c1C2=O)C[C@@](O)(C(=O)CO)C[C@@H]3O[C@H]1C[C@H](N)[C@H](O)[C@H](C)O1` [DOXORUBICIN], the IC50 (MDA-MB-435 [1]) is reported as 21.9 µM, the IC50 (MCF-10A [3]) is reported as 1.2 µM and the Drug uptake (MCF7 [6]) is reported as “Active”. The IC50 (HUVEC [8]) was 1.1 µM, the IC50 (MDA-MB-435 [10]) was 1.56 µM and the IC50 (MDA-MB-435 [12]) was 0.15 µM. The Drug uptake (HUVEC [13]) was “Active” and the IC50 (MDA-MB-435 [14]) was 0.6 µM.
